Reference: patent US9351491B2, “Inhibition and dispersion of biofilms in plants with imidazole-triazole derivatives” (priority 2008, dated 2016)
Where a name gives a salt, the structure may show the parent alone.

Assays:
[1] = test system: Xanthomonas strains Xcv 135; test: Crystal violet biofilm inhibition (attachment) assay on PVC microtiter wells; type: cell-based; details: 28° C., 6 hours, static
Experimental: A Standard Crystal Violet reporter assay is employed to assess the effect of compounds from the 2-amino on the formation of biofilms. Among others, the following strains are tested:
Bacteria are allowed to form biofilms in a multi-well plate in the absence or presence of one or more compounds. Planktonic (or free growing) bacteria are then removed, wells washed vigorously, and crystal violet added. Crystal violet stains the remaining bacteria which, following ethanol solubilization, is quantitated by spectrophotometry (A540). Time-dependent and concentration-dependent analysis of each compound are performed.
Biofilm formation on PVC microtiter wells was accomplished using Xanthomonas strains Xcv 135 (known to infect peppers and tomatoes) and Xcv 5 (known to infect tomatoes but not peppers) as models. The Starting Optical Density (OD at 600 nm) for biofilm attachment assay was 0.55, the temperature for this assay was 28° C., the duration of incubation was 6 hours under, and the assay was static.
Biofilm inhibition results are as follows for screens with Xcv 135. The Xcv 5 strain is tested in the same manner.

C. albicans = test: Growth curve / colony count analysis, C. albicans; type: cell-based, Candida albicans; details: 100 μM (data not shown)
[2] = test system: bacterial spot (caused by the bacterium Xanthomonas euvesicatoria) of pepper, copper-resistant strains; test: Field test in pepper plants inoculated with Xanthomonas euvesicatoria (bacterial spot); type: in vivo
Experimental: To test the effects of the triazole derivatives for plant biofilm inhibition activity, the compound of Formula (II)(a)(5)(D) was used as an exemplary compound (the “biofilm inhibitor/disperser” or “BFI” in the text hereinafter of Example 4).
The compound was evaluated under field conditions to determine whether it controls or enhances control of bacterial spot (caused by the bacterium Xanthomonas euvesicatoria) of pepper when applied alone or in tank-mixtures with a copper (Kocide 3000), an antibiotic (GWN-9350, gentamicin), or a putative plant defense activator (Prophyt). Tests were performed April-July 2008 at the North Carolina Agricultural Research Service Sandhills Research Station, Montgomery County.
EXPERIMENTAL DESIGN and TREATMENT APPLICATIONS: Each treatment consisted of two 7-plant rows running east-west replicated in a four-block completely randomized design. Each 7-plant row was 10.5 ft×2 ft. This area was used to calculate the quantity of spray material extrapolated for a per acre basis. Plants of bell pepper cultivar ‘X3R-Camelot’ were transplanted to the field on Apr. 24, 2008. On May 6, two plants in the south row of each plot of each treatment were inoculated with a suspension of copper-resistant strains of the bacterial pathogen. These plants were destined to serve as the inoculum source for each plot. Each of the spray test materials was mixed in 1.5 liters of water and applied using a backpack sprayer by making a single pass on each side of the plant row. Treatments were applied weekly starting immediately after the plants had been inoculated May 6 followed by 7 additional weekly sprays for a total of 8 applications through June 24.
DATA: Ratings of foliar disease were started May 22, when symptoms were observed on the inoculated plants and continued weekly through June 25. Disease was most severe on the inoculated plants and then spread to the non-inoculated plants. Data from these two groups (inoculated plants and the non-inoculated) were evaluated separately. The results are expressed as disease progress over time using the calculated Area Under the Disease Progress Curve (AUDPC). Two fruit harvests were done; July 1 and 8. Because there had been plant loss in some plots, the number of plants per plot was counted and yields (number of fruit and weight) were calculated and are reported on a per plant basis per treatment.

[3] = test system: Candida albicans biofilms; test: Inhibition of C. albicans biofilm formation, crystal violet reporter assay; type: cell-based; details: 24 h, read-out: inhibition of C. albicans biofilm formation
Experimental: It was screened at 100 μM for its ability to inhibit to the formation of C. albicans biofilms using a crystal violet reporter assay. Briefly, biofilms were allowed to form for 24 hours in a 96-well microtiter plate in the absence or presence of 100 μM of the compound. The wells were subsequently washed thoroughly with water to remove free-floating and loosely adherent fungus, and then treated with crystal violet. Crystal violet stains the remaining surface attached fungus (i.e. the biofilm), which following solublization, can be quantified by spectrophotometry (A540).
Each member of the pilot library was assayed at 100 μM for its ability to inhibit the formation of C. albicans biofilms using the crystal violet reporter assay.
Procedure to Determine the Inhibitory Effect of Test Compounds on C. albicans, C. neoformans and a Mixed S. epidermidis/C. albicans Biofilm Formation:
Inhibition assays were performed by taking an overnight culture of yeast or yeast/bacteria strain and subculturing it at an OD600 of 0.05 into YPD (Yeast extract, peptone and dextrose (BD 242820)) media for the yeast alone or tryptic soy broth for the S. epidermidis/C. albicans. […] Biofilm inhibition was quantitated by measuring the OD540 of each well in which a negative control lane wherein no biofilm was formed served as a background and was subtracted out.

[4] = two fruit harvests, per plant basis

SMILES | % Inhibition at 20 μM (vs. Xcv 135) [1] | growth curves: anti-biofilm activity fungicidal or not (C. albicans) | Mean AUDPC for entire plot ([2]; foliar disease, 0-9 rating scale, AUDPC, entire plot, 8 weekly sprays) | Mean AUDPC for inoculated plants ([2]; foliar disease, 0-9 rating scale, Area Under the Disease Progress Curve, inoculated bell pepper plants, 8 weekly sprays, rate/acre as in treatment line) | Mean fruit yield (lb)/plant [2, 4] | Mean number pepper fruit/plant [2, 4] | inhibition at 100 µM [3]
Nc1nc(CCc2cn(CCc3c[nH]c4ccccc34)nn2)c[nH]1 [Formula (II)(i)(a)(2)(J)] | 0% |  |  |  |  |  | 
C/C(=C\c1ccccc1)Cn1cc(CCCCCc2c[nH]c(N)n2)nn1 [Formula (II)(a)(5)(D), 4-{5-[1-(2-Methyl-3-phenyl-allyl)-1H-[1,2,3]triazol-4-yl]-pentyl}-1H-imidazol-2-ylamine hydrochloride] | 86% | non-fungicidal | 42 a | 113 b | 1.46 b lb | 4.8 b | 12%
C/C(=C\c1ccccc1)Cn1cc(CCCCCCc2c[nH]c(N)n2)nn1 [Formula (II)(a)(6)(D), 4-{6-[1-(2-Methyl-3-phenyl-allyl)-1H-[1,2,3]triazol-4-yl]-hexyl}-1H-imidazol-2-ylamine hydrochloride] | 85% |  |  |  |  |  | 
